Measurements as given in ChEMBL document CHEMBL1147808, “Protein tyrosine phosphatase 1B inhibitory activity of triterpenes isolated from Astilbe koreana” (Bioorg Med Chem Lett, 2006).

target: T1, Tyrosine-protein phosphatase non-receptor type 1 (Homo sapiens, UniProt P18031); assay: Inhibition of human recombinant PTP1B
T1 sequence (P18031 whole entry): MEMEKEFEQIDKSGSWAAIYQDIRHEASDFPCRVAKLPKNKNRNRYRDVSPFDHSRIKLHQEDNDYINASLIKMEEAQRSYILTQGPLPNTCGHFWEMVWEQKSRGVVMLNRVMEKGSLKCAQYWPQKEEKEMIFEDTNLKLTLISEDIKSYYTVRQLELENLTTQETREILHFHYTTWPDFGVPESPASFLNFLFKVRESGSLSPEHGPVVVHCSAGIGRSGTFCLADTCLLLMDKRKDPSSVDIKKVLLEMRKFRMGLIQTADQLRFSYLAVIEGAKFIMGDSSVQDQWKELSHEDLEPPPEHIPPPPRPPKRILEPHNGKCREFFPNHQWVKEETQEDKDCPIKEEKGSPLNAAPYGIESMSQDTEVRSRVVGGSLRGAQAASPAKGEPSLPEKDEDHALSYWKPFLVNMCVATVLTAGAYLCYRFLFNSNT

| Structure (SMILES) | IC50 |
| --- | --- |
| CC1(C)CC[C@]2(C)CC[C@]3(C(=O)O)C(=CC[C@@H]4[C@@]5(C)CCC(=O)C(C)(C)[C@@H]5CC[C@]43C)[C@@H]2C1 | 6.8 µM |
| COC(=O)[C@@]12CC[C@@]3(C)CCC(C)(C)C[C@H]3C1=CC[C@@H]1[C@@]3(C)CC[C@H](O)C(C)(C)C3CC[C@]12C (some centres undefined) | 16 µM |
| CC1(C)CC[C@]2(C)CC[C@]3(C(=O)O)C(=CC[C@@H]4[C@@]5(C)CC[C@@H](O)[C@](C)(CO)C5CC[C@]43C)[C@@H]2C1 (some centres undefined) | 11.7 µM |
| CC(=O)O[C@H]1CC[C@@]2(C)C(CC[C@]3(C)[C@@H]2CC=C2[C@@H]4CC(C)(C)CC[C@]4(C)CC[C@]23C(=O)O)C1(C)C (some centres undefined) | 8.5 µM |
| CC1(C)CC[C@]2(C)CC[C@]3(C(=O)O)C(=CC[C@@H]4[C@@]5(C)CC[C@H](O)C(C)(C)C5CC[C@]43C)[C@@H]2C1 (some centres undefined) | 5.2 µM |
| CC1(C)CC[C@]2(C)CC[C@]3(C(=O)O)C(=CC[C@@H]4[C@@]5(C)CC[C@H](O)C(C)(C)C5[C@H](O)C[C@]43C)[C@@H]2C1 (some centres undefined) | 12.8 µM |
| C[C@H]1[C@H](C)CC[C@]2(C)CC[C@]3(C(=O)O)C(=CC[C@@H]4[C@@]5(C)CC[C@H](O)C(C)(C)C5CC[C@]43C)[C@H]12 (some centres undefined) | 4.9 µM |
| COC(=O)[C@@]12CCC3C(=CC[C@H]4[C@@]3(C)CCC3C(C)(C)[C@@H](O)CC[C@@]34C)[C@@H]1CC(C)(C)CC2 (some centres undefined) | 14.2 µM |
| CC1(C)[C@@H](O[C@H]2O[C@H](C(=O)O)[C@@H](O)[C@H](O)[C@H]2O[C@@H]2O[C@H](C(=O)O)[C@@H](O)[C@H](O)[C@H]2O)CC[C@]2(C)[C@H]3C(=O)C=C4[C@@H]5C[C@@](C)(C(=O)O)CC[C@]5(C)CC[C@@]4(C)[C@]3(C)CC[C@@H]12 [GLYCYRRHIZIN] | > 100 µM |
